Measured values from US20090176811A1, “Substituted 5,6,7,8-Tetrahydro-pyrido[4,3-d]pyrimidine-2-yl Compounds and 5,6,7,8-Tetrahydro-quinazoline-2-yl Compounds” (GRUENENTHAL GmbH, priority 2004, published 2009).

Key:
[1] = target: T1, mGluR5 receptor (Sus scrofa, UniProt I3LUI7); assay: Affinity for the mGluR5 receptor ([3H]-MPEP binding, pig brain homogenate); conditions: 10 μM compound, 15 nM [3H]-MPEP
T1 construct: 450 μg of protein from brain homogenate is incubated; from tissue; host or cells: pig brain hemispheres without medulla, cerebellum and pons
T1 sequence (I3LUI7 19-1212): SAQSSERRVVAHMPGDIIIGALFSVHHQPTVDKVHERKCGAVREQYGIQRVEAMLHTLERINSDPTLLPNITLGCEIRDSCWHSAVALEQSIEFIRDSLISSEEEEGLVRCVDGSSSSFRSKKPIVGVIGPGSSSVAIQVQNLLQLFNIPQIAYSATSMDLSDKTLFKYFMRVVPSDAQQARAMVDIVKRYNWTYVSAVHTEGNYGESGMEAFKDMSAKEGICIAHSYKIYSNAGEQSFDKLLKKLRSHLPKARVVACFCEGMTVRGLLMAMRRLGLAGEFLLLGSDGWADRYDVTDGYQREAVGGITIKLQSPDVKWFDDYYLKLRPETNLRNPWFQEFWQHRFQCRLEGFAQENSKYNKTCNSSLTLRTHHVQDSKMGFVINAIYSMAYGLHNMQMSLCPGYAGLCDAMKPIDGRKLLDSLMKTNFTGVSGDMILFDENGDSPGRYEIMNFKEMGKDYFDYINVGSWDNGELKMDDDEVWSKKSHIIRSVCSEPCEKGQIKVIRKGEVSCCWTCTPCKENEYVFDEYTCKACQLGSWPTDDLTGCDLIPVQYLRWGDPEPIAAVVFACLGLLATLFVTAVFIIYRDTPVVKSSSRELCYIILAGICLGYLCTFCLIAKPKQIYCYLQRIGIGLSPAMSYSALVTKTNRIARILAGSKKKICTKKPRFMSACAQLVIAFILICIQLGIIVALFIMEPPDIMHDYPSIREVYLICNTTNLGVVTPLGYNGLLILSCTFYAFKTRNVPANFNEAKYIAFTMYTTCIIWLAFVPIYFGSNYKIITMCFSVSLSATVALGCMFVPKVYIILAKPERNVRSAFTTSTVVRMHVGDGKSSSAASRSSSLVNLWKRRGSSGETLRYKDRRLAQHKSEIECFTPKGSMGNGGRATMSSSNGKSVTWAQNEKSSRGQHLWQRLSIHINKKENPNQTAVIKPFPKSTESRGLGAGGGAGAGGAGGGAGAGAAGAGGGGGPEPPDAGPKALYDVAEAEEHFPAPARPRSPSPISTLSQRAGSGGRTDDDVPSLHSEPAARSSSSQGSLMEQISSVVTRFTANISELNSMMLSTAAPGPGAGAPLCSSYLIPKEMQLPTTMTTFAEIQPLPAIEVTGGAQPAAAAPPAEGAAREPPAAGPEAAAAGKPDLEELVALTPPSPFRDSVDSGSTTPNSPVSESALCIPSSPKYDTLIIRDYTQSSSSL
Protocol: III. Method for Determining Affinity for the mGluR5 Receptor
Pig brain homogenate is produced by homogenisation (Polytron Pt 3000, Kinematica AG, 10,000 rpm (revolutions per minute) for 90 seconds) of pig brain hemispheres without medulla, cerebellum and pons in a buffer of pH 8.0 (30 mM Hepes, Sigma, order number H3375+1 tablet Complete Roche Diagnostics, order number 1836145 made up to 100 ml) in a ratio of 1:20 (brain weight/volume) and differential centrifugation at 900 g and 40,000 g. 450 μg of protein from brain homogenate is incubated in each case in 250 μl incubation batches in 96-well microtitre plates with 15 nM ^3[H]-MPEP (Tocris, order number R1212) and the compounds to be investigated (in each case 10 μM in the test) in the above-stated buffer at room temperature for 60 minutes.
The batches are then filtered with the assistance of a Brandel Cell Harvester (Brandel, Grade Robotic 9600) on Unifilter plates with glass filter mats (Perkin Elmer, order number 6005177) and then rewashed 3 times with buffer of the above-stated composition using 250 μl per sample. The filter plates are then dried for 60 minutes at 55° C. Then 30 μl of Ultima Gold scintillating material (Packard BioScience, order number 6013159) is added per well and after 3 hours the samples are measured using the B counter ([…], Perkin Elmer). Nonspecific binding is determined by the addition of 10 μM 2-methyl-6-(phenylethynyl)-pyridine (Tocris, order number 1212).

[2] = target: T2, NA transporter (Rattus norvegicus, UniProt Q63380); assay: Noradrenalin uptake inhibition in rat brain synaptosomes (hypothalamus); format: biochemical
T2 construct: from tissue; host or cells: rat hypothalamus synaptosomes (P2 fraction)
T2 sequence (Q63380 1-617): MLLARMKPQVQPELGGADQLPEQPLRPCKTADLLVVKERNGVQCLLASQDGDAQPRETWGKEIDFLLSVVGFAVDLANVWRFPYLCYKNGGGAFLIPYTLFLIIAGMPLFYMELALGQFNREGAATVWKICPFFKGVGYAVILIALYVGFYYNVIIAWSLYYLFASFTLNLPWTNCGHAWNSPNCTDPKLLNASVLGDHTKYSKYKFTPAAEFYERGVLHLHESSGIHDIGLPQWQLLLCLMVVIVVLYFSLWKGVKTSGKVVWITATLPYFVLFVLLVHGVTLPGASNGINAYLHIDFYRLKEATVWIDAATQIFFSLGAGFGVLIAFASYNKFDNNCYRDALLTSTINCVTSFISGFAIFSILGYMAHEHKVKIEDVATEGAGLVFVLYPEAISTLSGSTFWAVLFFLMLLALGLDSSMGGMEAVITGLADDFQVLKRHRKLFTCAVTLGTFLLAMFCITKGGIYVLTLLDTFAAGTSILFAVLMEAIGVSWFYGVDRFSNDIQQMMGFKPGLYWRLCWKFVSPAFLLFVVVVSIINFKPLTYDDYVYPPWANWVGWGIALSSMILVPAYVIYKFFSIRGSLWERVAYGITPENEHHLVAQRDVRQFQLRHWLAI
Method in brief: (§1)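 Freshly isolated P2 synaptosomes from rat hypothalamus (noradrenalin) or medulla and pons (5-HT) incubated at room temperature under O2 with [3H]-NA for 7.5 min or [3H]-5-HT for 5 min. Uptake measured by filtration and scintillation counting.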

[3] = target: T3, 5-HT transporter (Rattus norvegicus, UniProt P31652); assay: 5-HT uptake inhibition in rat brain synaptosomes (medulla and pons); format: biochemical
T3 construct: from tissue; host or cells: rat medulla and pons synaptosomes (P2 fraction)
T3 sequence (P31652 whole entry): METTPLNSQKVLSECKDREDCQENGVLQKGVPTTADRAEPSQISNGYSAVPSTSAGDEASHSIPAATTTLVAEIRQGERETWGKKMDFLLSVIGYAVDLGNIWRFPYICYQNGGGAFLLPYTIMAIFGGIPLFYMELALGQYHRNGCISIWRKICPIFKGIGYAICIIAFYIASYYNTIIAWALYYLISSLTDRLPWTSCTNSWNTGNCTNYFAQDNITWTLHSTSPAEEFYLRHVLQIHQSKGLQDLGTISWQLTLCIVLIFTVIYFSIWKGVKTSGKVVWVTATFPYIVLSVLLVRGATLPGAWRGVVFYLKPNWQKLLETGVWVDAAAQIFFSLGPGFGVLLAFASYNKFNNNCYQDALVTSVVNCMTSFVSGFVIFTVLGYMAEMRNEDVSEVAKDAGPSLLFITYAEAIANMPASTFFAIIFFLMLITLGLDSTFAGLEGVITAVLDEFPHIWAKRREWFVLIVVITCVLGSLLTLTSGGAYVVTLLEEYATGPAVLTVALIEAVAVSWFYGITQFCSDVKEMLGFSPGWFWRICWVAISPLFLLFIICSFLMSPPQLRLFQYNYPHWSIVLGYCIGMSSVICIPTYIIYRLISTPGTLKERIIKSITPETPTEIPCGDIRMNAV
Method in brief: as §1

| Compound | inhibition at 10 µM [1] | inhibition at 10 µM [2] | inhibition at 1 µM [3] |
| --- | --- | --- | --- |
| CCOc1ccccc1C(=O)Nc1ncc2c(n1)CCN(S(=O)(=O)c1ccccc1C(=O)OC)C2 [Example 82, 2-[2-(2-ethoxy-benzoylamino)-7,8-dihydro-5H-pyrido[4,3-d]pyrimidine-6-sulfonyl]-benzoic acid methyl ester] | 36.3% | 32% |  |
| Cc1ccc(C(=O)Nc2ncc3c(n2)CCN(S(=O)(=O)c2cc(F)ccc2C)C3)cc1 [Example 107, N-[6-(5-fluoro-2-methyl-benzenesulfonyl)-5,6,7,8-tetrahydro-pyrido[4,3-d]pyrimidin-2-yl]-4-methyl-benzamide] | 38.2% | 39% | 36% |
| O=C(Nc1ncc2c(n1)CCN(C(=O)c1ccc(Cl)c(Cl)c1)C2)c1ccccc1F [Example 113, N-[6-(3,4-dichloro-benzoyl)-5,6,7,8-tetrahydro-pyrido[4,3-d]pyrimidin-2-yl]-2-fluoro-benzamide] | 31.3% | 67% | 45% |
| Cc1cc(C(=O)NC2CCc3nc(NC(=O)c4cccs4)ncc3C2)ccc1Br (centres unmarked) [Example 115, thiophene-2-carboxylic acid [6-(4-bromo-3-methyl-benzoylamino)-5,6,7,8-tetrahydro-quinazolin-2-yl]-amide] | 34.3% | 49% | 56% |
| Cc1ccc(S(=O)(=O)N2CCc3nc(NC(=O)c4cccc(F)c4)ncc3C2)cc1 [Example 143, 3-fluoro-N-[6-(toluene-4-sulfonyl)-5,6,7,8-tetrahydro-pyrido[4,3-d]pyrimidin-2-yl]-benzamide] | 37.2% | 53% |  |
| O=C(Nc1ncc2c(n1)CCN(C(=O)c1ccc(F)cc1F)C2)c1ccc(Cl)cc1 [Example 152, 4-chloro-N-[6-(2,4-difluoro-benzoyl)-5,6,7,8-tetrahydro-pyrido[4,3-d]pyrimidin-2-yl]-benzamide] | 34% |  | 33% |
| Cc1ccc(C(=O)N2CCc3nc(NC(=O)c4cccc5ccccc45)ncc3C2)cc1F [Example 154, naphthalene-1-carboxylic acid [6-(3-fluoro-4-methyl-benzoyl)-5,6,7,8-tetrahydro-pyrido[4,3-d]pyrimidin-2-yl]-amide] | 30.7% | 50% |  |
| O=C(Nc1ncc2c(n1)CCN(C(=O)c1ccc(Cl)c(Cl)c1)C2)c1cccnc1 [Example 156, N-[6-(3,4-dichloro-benzoyl)-5,6,7,8-tetrahydro-pyrido[4,3-d]pyrimidin-2-yl]-nicotinamide] | 46% | 50% |  |
| CCCC(=O)Nc1ncc2c(n1)CCC(NC(=O)C=Cc1cccc(C(F)(F)F)c1)C2 (centres unmarked) [Example 168, N-(2-butyrylamino-5,6,7,8-tetrahydro-quinazolin-6-yl)-3-(3-trifluoromethyl-phenyl)-acrylamide] | 33.5% |  | 46% |
| CCc1ccc(C(=O)Nc2ncc3c(n2)CCN(S(=O)(=O)c2ccc(OC)cc2)C3)cc1 [Example 172, 4-ethyl-N-[6-(4-methoxy-benzenesulfonyl)-5,6,7,8-tetrahydro-pyrido[4,3-d]pyrimidin-2-yl]-benzamide] | 70.1% | 85% | 57% |
| O=C(Cc1cccc2ccccc12)NC1CCc2nc(NC(=O)c3cccs3)ncc2C1 (centres unmarked) [Example 177, thiophene-2-carboxylic acid [6-(2-naphthalen-1-yl-acetylamino)-5,6,7,8-tetrahydro-quinazolin-2-yl]-amide] | 42% |  | 39% |
| O=C(Nc1ncc2c(n1)CCC(NS(=O)(=O)c1cc(Cl)sc1Cl)C2)c1cccs1 (centres unmarked) [Example 180, thiophene-2-carboxylic acid [6-(2,5-dichloro-thiophene-3-sulfonylamino)-5,6,7,8-tetrahydro-quinazolin-2-yl]-amide] | 86.7% | 34% |  |
| Cc1ccc(C(=O)Nc2ncc3c(n2)CCN(C(=O)COc2cccc(Cl)c2)C3)cc1 [Example 189, N-{6-[2-(3-chloro-phenoxy)-acetyl]-5,6,7,8-tetrahydro-pyrido[4,3-d]pyrimidin-2-yl}-4-methyl-benzamide] | 39.5% | 53% | 46% |
| CCCCC(C)CCC(=O)N1CCc2nc(NC(=O)c3cccc4ccccc34)ncc2C1 (centres unmarked) [Example 193, naphthalene-1-carboxylic acid [6-(4-methyl-octanoyl)-5,6,7,8-tetrahydro-pyrido[4,3-d]pyrimidin-2-yl]-amide] | 51.8% | 43% | 38% |
| O=C(Nc1ncc2c(n1)CCC(NS(=O)(=O)c1ccc(Cl)s1)C2)c1ccc(F)cc1 (centres unmarked) [Example 202, N-[6-(5-chloro-thiophene-2-sulfonylamino)-5,6,7,8-tetrahydro-quinazolin-2-yl]-4-fluoro-benzamide] | 33.1% |  |  |
